Source: PubChem BioAssay (NCI)
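Where inhibition never reached the appropriate level, the endpoint shown equals the highest concentration tested. Otherwise, values were interpolated linearly from a five-concentration, 48-hour dose response in 96-well plates. TGI denotes the concentration required for complete inhibition of growth.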

Tests used:
Assay in all cases: growth of human tumour cells (NCI), 48 h
786-0 renal = tested on: 786-0 renal
A498 renal = tested on: A498 renal
A549 NSCLC = tested on: A549 NSCLC
ACHN renal = tested on: ACHN renal
CCRF-CEM leukemia = tested on: CCRF-CEM leukemia
COLO 205 colon = tested on: COLO 205 colon
DLD-1 colon = tested on: DLD-1 colon
DMS 114 small cell lung = tested on: DMS 114 small cell lung
DMS 273 small cell lung = tested on: DMS 273 small cell lung
EKVX NSCLC = tested on: EKVX NSCLC
HCC-2998 colon = tested on: HCC-2998 colon
HCT-116 colon = tested on: HCT-116 colon
HCT-15 colon = tested on: HCT-15 colon
HL-60(TB) leukemia = tested on: HL-60(TB) leukemia
HOP-62 NSCLC = tested on: HOP-62 NSCLC
HOP-92 NSCLC = tested on: HOP-92 NSCLC
HT29 colon = tested on: HT29 colon
IGROV1 ovarian = tested on: IGROV1 ovarian
K-562 leukemia = tested on: K-562 leukemia
KM12 colon = tested on: KM12 colon
KM20L2 colon = tested on: KM20L2 colon
LOX IMVI melanoma = tested on: LOX IMVI melanoma
LXFL 529 NSCLC = tested on: LXFL 529 NSCLC
M14 melanoma = tested on: M14 melanoma
M19-MEL melanoma = tested on: M19-MEL melanoma
MALME-3M melanoma = tested on: MALME-3M melanoma
MOLT-4 leukemia = tested on: MOLT-4 leukemia
NCI-H226 lung = tested on: NCI-H226 lung
NCI-H23 lung = tested on: NCI-H23 lung
NCI-H460 lung = tested on: NCI-H460 lung
OVCAR-3 ovarian = tested on: OVCAR-3 ovarian
OVCAR-4 ovarian = tested on: OVCAR-4 ovarian
OVCAR-5 ovarian = tested on: OVCAR-5 ovarian
OVCAR-8 ovarian = tested on: OVCAR-8 ovarian
RPMI-8226 leukemia = tested on: RPMI-8226 leukemia
RXF 393 renal = tested on: RXF 393 renal
SF-268 CNS = tested on: SF-268 CNS
SF-295 CNS = tested on: SF-295 CNS
SF-539 CNS = tested on: SF-539 CNS
SK-MEL-2 melanoma = tested on: SK-MEL-2 melanoma
SK-MEL-28 melanoma = tested on: SK-MEL-28 melanoma
SK-MEL-5 melanoma = tested on: SK-MEL-5 melanoma
SK-OV-3 ovarian = tested on: SK-OV-3 ovarian
SN12C renal = tested on: SN12C renal
SNB-19 CNS = tested on: SNB-19 CNS
SNB-75 CNS = tested on: SNB-75 CNS
SNB-78 CNS = tested on: SNB-78 CNS
SW-620 colon = tested on: SW-620 colon
TK-10 renal = tested on: TK-10 renal
U251 CNS = tested on: U251 CNS
UACC-257 melanoma = tested on: UACC-257 melanoma
UACC-62 melanoma = tested on: UACC-62 melanoma
UO-31 renal = tested on: UO-31 renal
XF 498 CNS = tested on: XF 498 CNS
CAKI-1 renal = tested on: CAKI-1 renal
HOP-18 NSCLC = tested on: HOP-18 NSCLC
NCI-H522 lung = tested on: NCI-H522 lung
SR leukemia = tested on: SR leukemia

CC(=O)O[C@H]1CC[C@@]2(C)C(=CC[C@H]3C(CC#N)[C@@](C)(C#N)CCC32)C1 (stereo partly specified)
TGI (786-0 renal): > 100 µM
TGI (A498 renal): > 100 µM
TGI (A549 NSCLC): > 100 µM
TGI (ACHN renal): > 100 µM
TGI (CCRF-CEM leukemia): > 100 µM
TGI (COLO 205 colon): > 100 µM
TGI (DLD-1 colon): > 100 µM
TGI (DMS 114 small cell lung): > 100 µM
TGI (DMS 273 small cell lung): > 100 µM
TGI (EKVX NSCLC): > 100 µM
TGI (HCC-2998 colon): > 100 µM
TGI (HCT-116 colon): > 100 µM
TGI (HCT-15 colon): > 100 µM
TGI (HL-60(TB) leukemia): > 100 µM
TGI (HOP-62 NSCLC): > 100 µM
TGI (HOP-92 NSCLC): 88.9 µM
TGI (HT29 colon): > 100 µM
TGI (IGROV1 ovarian): > 100 µM
TGI (K-562 leukemia): > 100 µM
TGI (KM12 colon): > 100 µM
TGI (KM20L2 colon): > 100 µM
TGI (LOX IMVI melanoma): > 100 µM
TGI (LXFL 529 NSCLC): > 100 µM
TGI (M14 melanoma): > 100 µM
TGI (M19-MEL melanoma): > 100 µM
TGI (MALME-3M melanoma): > 100 µM
TGI (MOLT-4 leukemia): > 100 µM
TGI (NCI-H226 lung): > 100 µM
TGI (NCI-H23 lung): > 100 µM
TGI (NCI-H460 lung): > 100 µM
TGI (OVCAR-3 ovarian): > 100 µM
TGI (OVCAR-4 ovarian): > 100 µM
TGI (OVCAR-5 ovarian): > 100 µM
TGI (OVCAR-8 ovarian): > 100 µM
TGI (RPMI-8226 leukemia): > 100 µM
TGI (RXF 393 renal): > 100 µM
TGI (SF-268 CNS): > 100 µM
TGI (SF-295 CNS): > 100 µM
TGI (SF-539 CNS): > 100 µM
TGI (SK-MEL-2 melanoma): > 100 µM
TGI (SK-MEL-28 melanoma): > 100 µM
TGI (SK-MEL-5 melanoma): > 100 µM
TGI (SK-OV-3 ovarian): > 100 µM
TGI (SN12C renal): > 100 µM
TGI (SNB-19 CNS): > 100 µM
TGI (SNB-75 CNS): > 100 µM
TGI (SNB-78 CNS): > 100 µM
TGI (SW-620 colon): > 100 µM
TGI (TK-10 renal): > 100 µM
TGI (U251 CNS): > 100 µM
TGI (UACC-257 melanoma): > 100 µM
TGI (UACC-62 melanoma): > 100 µM
TGI (UO-31 renal): > 100 µM
TGI (XF 498 CNS): > 100 µM

NC1=C(O)/C(=N/NS(=O)(=O)c2ccccc2)C(c2ccc3c(c2)OCO3)O1 (stereo unspecified)
TGI (786-0 renal): > 100 µM
TGI (A498 renal): > 100 µM
TGI (A549 NSCLC): > 100 µM
TGI (ACHN renal): > 100 µM
TGI (CAKI-1 renal): > 100 µM
TGI (CCRF-CEM leukemia): > 100 µM
TGI (COLO 205 colon): > 100 µM
TGI (DLD-1 colon): > 100 µM
TGI (DMS 114 small cell lung): > 100 µM
TGI (DMS 273 small cell lung): > 100 µM
TGI (EKVX NSCLC): > 100 µM
TGI (HCC-2998 colon): > 100 µM
TGI (HCT-116 colon): > 100 µM
TGI (HCT-15 colon): > 100 µM
TGI (HL-60(TB) leukemia): > 100 µM
TGI (HOP-18 NSCLC): > 100 µM
TGI (HOP-62 NSCLC): > 100 µM
TGI (HOP-92 NSCLC): > 100 µM
TGI (HT29 colon): > 100 µM
TGI (IGROV1 ovarian): > 100 µM
TGI (K-562 leukemia): > 100 µM
TGI (KM12 colon): > 100 µM
TGI (KM20L2 colon): > 100 µM
TGI (LOX IMVI melanoma): > 100 µM
TGI (LXFL 529 NSCLC): > 100 µM
TGI (M14 melanoma): > 100 µM
TGI (M19-MEL melanoma): 83.4 µM
TGI (MALME-3M melanoma): > 100 µM
TGI (MOLT-4 leukemia): > 100 µM
TGI (NCI-H226 lung): > 100 µM
TGI (NCI-H23 lung): > 100 µM
TGI (NCI-H460 lung): > 100 µM
TGI (NCI-H522 lung): > 100 µM
TGI (OVCAR-3 ovarian): > 100 µM
TGI (OVCAR-4 ovarian): > 100 µM
TGI (OVCAR-5 ovarian): > 100 µM
TGI (OVCAR-8 ovarian): > 100 µM
TGI (RPMI-8226 leukemia): > 100 µM
TGI (RXF 393 renal): > 100 µM
TGI (SF-268 CNS): > 100 µM
TGI (SF-295 CNS): > 100 µM
TGI (SF-539 CNS): > 100 µM
TGI (SK-MEL-2 melanoma): > 100 µM
TGI (SK-MEL-28 melanoma): > 100 µM
TGI (SK-MEL-5 melanoma): > 100 µM
TGI (SK-OV-3 ovarian): > 100 µM
TGI (SN12C renal): > 100 µM
TGI (SNB-19 CNS): > 100 µM
TGI (SNB-75 CNS): > 100 µM
TGI (SNB-78 CNS): > 100 µM
TGI (SR leukemia): > 100 µM
TGI (SW-620 colon): > 100 µM
TGI (TK-10 renal): > 100 µM
TGI (U251 CNS): > 100 µM
TGI (UACC-257 melanoma): > 100 µM
TGI (UACC-62 melanoma): > 100 µM
TGI (UO-31 renal): > 100 µM
